This note sets out measurements from patent US20240293304A1, “SULFONATE-FUNCTIONALIZED ALKYL POLYGLUCOSIDES AS SULFATE-FREE SURFACTANTS FOR TOOTHPASTE AND MOUTHWASH” (Colonial Chemical, Inc., priority 2021, published 2024).

The subject of series [1] is gingival tissues (MatTek EpiGingival). Put plainly: MatTek EpiGingival in vitro gingival irritation potential. Particulars: 2% SLS. The class given is cell-based. The text has this: Suga®Nate 160NC has been tested for its oral and gingival irritation potential in vitro (MatTek EpiOral™ & EpiGingival™). […] Taken together, the results reveal that Suga®Nate 160NC, even as a neat product, is less irritating to oral and gingival tissues than 2% SLS.

In series [2] the test system is In vitro epidermal keratinocytes. The class given is cell-based.

For `CCCCCCCCCCCCOS(=O)(=O)[O-].[Na+]` [SLS], in series [1], the ET-50 came to 418.2 min and the gingival irritation entry is on record as “resulted in gingival irritation”.
For the compound “sodium hydroxypropylsulfonate laurylglucoside crosspolymer [Poly Suga®Nate 160P NC]”, in series [2], the ET-50 was no less than 256 min and the eye irritation classification entry was “non-irritating”.
With “sorbitan oleate decylglucoside crosspolymer [Poly Suga®Mulse D9]”, the eye irritation classification entry in series [2] is “non-irritating”.
